Results taken from patent US11708348B2, “Protease inhibitors for treatment of coronavirus infections” (The Scripps Research Institute, priority 2021, dated 2023).
Like-named read-outs stand apart in the source and are kept apart here.

Tested on: SARS-CoV-2 strain USA-WA1/2020
Assay: microbe, parasite or virus in culture
Type: cell-based
Settings: Severe acute respiratory syndrome coronavirus 2, HeLa-ACE2, 24 h, read-out: EC50, uM (Hela)
[1] = HeLa-ACE2 cells, SARS-CoV-2 infection, 24 h
[2] = HeLa-ACE2 cells, SARS-CoV-2 infection, 24 h, class symbols

Row | SMILES | EC50 [1] | EC50 [2] | also measured
1 | O=C(Nc1ccccc1F)C(=O)N1CC2(C[C@H]1C(=O)N[C@@H](C[C@@H]1CCNC1=O)C(=O)COC(F)(F)F)CC2(F)F (stereo partly drawn) [Compound 482, (6S)-1,1-difluoro-5-(2-((2-fluorophenyl)amino)-2-oxoacetyl)-N-((S)-3-oxo-1-((S)-2-oxopyrrolidin-3-yl)-4-(trifluoromethoxy)butan-2-yl)-5-azaspiro[2.4]heptane-6-carboxamide] | 0.05 to 0.2 µM |  | 
2 | CC[C@@H](O)C(=O)N1C[C@@H]2CCC[C@@H]2[C@H]1C(=O)N[C@@H](C[C@@H]1CCNC1=O)C(=O)COC(F)(F)F [Compound 377, (1S,3aR,6aS)-2-((R)-2-hydroxybutanoyl)-N-((S)-3-oxo-1-((S)-2-oxopyrrolidin-3-yl)-4-(trifluoromethoxy)butan-2-yl)octahydrocyclo-penta[c]pyrrole-1-carboxamide] |  | 0.05 to 0.2 µM | 
3 | O=C1NCC[C@H]1C[C@H](NC(=O)[C@@H]1[C@H]2CCC[C@H]2CN1C(=O)c1noc2cc(F)ccc12)C(=O)COC(F)(F)F [Compound 611, (1S,3aR,6aS)-2-(6-fluorobenzo[d]isoxazole-3-carbonyl)-N-((S)-3-oxo-1-((S)-2-oxopyrrolidin-3-yl)-4-(trifluoromethoxy)butan-2-yl)octahydrocyclopenta[c]pyrrole-1-carboxamide] | < 0.05 µM |  | 
4 | CC(C)(F)C(=O)N1CC2(CC2)C[C@H]1C(=O)N[C@@H](C[C@@H]1CCNC1=O)C(=O)COC(F)(F)F [Compound 735, (S)-5-(2-fluoro-2-methylpropanoyl)-N-((S)-3-oxo-1-((S)-2-oxopyrrolidin-3-yl)-4-(trifluoromethoxy)butan-2-yl)-5-azaspiro[2.4]heptane-6-carboxamide] | < 0.05 µM |  | 
5 | COc1cccc2[nH]c(C(=O)N[C@@H](CC(C)C)C(=O)N[C@@H](CC3CCNC3=O)C(=O)COP(=O)(c3ccccc3)c3ccccc3)cc12 (stereo partly drawn) [Compound 195, (3S)-3-((S)-2-(4-methoxy-1H-indole-2-carboxamido)-4-methylpentanamido)-2-oxo-4-(2-oxopyrrolidin-3-yl)butyl diphenylphosphinate] |  |  | EC50: 0.05 to 0.2 µM
6 | CC(C)(C)NC(=O)C(=O)N1C[C@@H]2C(F)CC[C@@H]2[C@H]1C(=O)N[C@@H](C[C@@H]1CCNC1=O)C(=O)COC(F)(F)F (stereo partly drawn) [Compound 601, (1S,3aR,6aS)-2-(2-(tert-butylamino)-2-oxoacetyl)-4-fluoro-N-((S)-3-oxo-1-((S)-2-oxopyrrolidin-3-yl)-4-(trifluoromethoxy)butan-2-yl)octahydrocyclo-penta[c]pyrrole-1-carboxamide] | 0.05 to 0.2 µM |  | 
7 | CC[C@@H](O)C(=O)N1[C@H](C(=O)N[C@@H](C[C@@H]2CCNC2=O)C(=O)COC(F)(F)F)C[C@@H]2CCC[C@@H]21 [Compound 374, (2S,3aS,6aS)-1-((R)-2-hydroxybutanoyl)-N-((S)-3-oxo-1-((S)-2-oxopyrrolidin-3-yl)-4-(trifluoromethoxy)butan-2-yl)octahydrocyclo-penta[b]pyrrole-2-carboxamide] |  | 0.5 to 1 µM | 
8 | CC(C)C[C@@H](OCC(C)(C)O)C(=O)N1CC2(CC2)C[C@H]1C(=O)N[C@@H](C[C@@H]1CCNC1=O)C(=O)COC(F)(F)F [Compound 334, (S)-5-((R)-2-(2-hydroxy-2-methylpropoxy)-4-methylpentanoyl)-N-((S)-3-oxo-1-((S)-2-oxopyrrolidin-3-yl)-4-(trifluoromethoxy)butan-2-yl)-5-azaspiro[2.4]heptane-6-carboxamide] |  | 0.05 to 0.2 µM | 
9 | O=C(NCC(F)(F)F)C(=O)NC(CC1CCOCC1)C(=O)N[C@@H](C[C@@H]1CCNC1=O)C(=O)COC(F)(F)F (stereo partly drawn) [Compound 267, N1-(1-oxo-1-(((S)-3-oxo-1-((S)-2-oxopyrrolidin-3-yl)-4-(trifluoromethoxy)butan-2-yl)amino)-3-(tetrahydro-2H-pyran-4-yl)propan-2-yl)-N2-(2,2,2-trifluoroethyl)-oxalamide] |  | 0.5 to 1 µM | 
10 | CC(C)C[C@H](NC(=O)C1(C)CCCO1)C(=O)N[C@@H](C[C@@H]1CCNC1=O)C(=O)COC(F)(F)F (stereo partly drawn) [Compound 214, 2-methyl-N-((S)-4-methyl-1-oxo-1-(((S)-3-oxo-1-((S)-2-oxopyrrolidin-3-yl)-4-(trifluoromethoxy)butan-2-yl)amino)pentan-2-yl)tetrahydrofuran-2-carboxamide] |  | 0.05 to 0.2 µM | 
11 | O=C1NCC[C@H]1C[C@H](NC(=O)[C@@H]1CC2(CC2)CN1C(=O)[C@H](O)c1ccccc1)C(=O)COC(F)(F)F [Compound 412, (S)-5-((R)-2-hydroxy-2-phenylacetyl)-N-((S)-3-oxo-1-((S)-2-oxopyrrolidin-3-yl)-4-(trifluoromethoxy)butan-2-yl)-5-azaspiro[2.4]-heptane-6-carboxamide] | 0.05 to 0.2 µM |  | 
12 | Cc1cc(C(=O)N[C@H](C(=O)N[C@@H](CC(C)C)C(=O)N[C@@H](C[C@@H]2CCNC2=O)C(=O)COc2c(F)c(F)cc(F)c2F)C(C)(C)C)no1 [Compound 118, N-((S)-3,3-dimethyl-1-(((S)-4-methyl-1-oxo-1-(((S)-3-oxo-1-((S)-2-oxopyrrolidin-3-yl)-4-(2,3,5,6-tetrafluorophenoxy)butan-2-yl)amino)pentan-2-yl)amino)-1-oxobutan-2-yl)-5-methylisoxazole-3-carboxamide] |  | 0.2 to 0.5 µM | 
13 | O=C1NCC[C@H]1C[C@H](NC(=O)[C@@H]1CC2(CC2)CN1C(=O)c1cccc(C(F)(F)F)c1)C(=O)COC(F)(F)F [Compound 457, (S)-N-((S)-3-oxo-1-((S)-2-oxopyrrolidin-3-yl)-4-(trifluoromethoxy)butan-2-yl)-5-(3-(trifluoromethyl)-benzoyl)-5-azaspiro[2.4]heptane-6-carboxamide] | < 0.05 µM |  | 
14 | O=C(N[C@@H](CCc1ccccc1)C(=O)N[C@@H](C[C@@H]1CCNC1=O)C(=O)COc1c(F)c(F)cc(F)c1F)c1cc2cc(F)ccc2[nH]1 [Compound 12, 5-fluoro-N-((S)-1-oxo-1-(((S)-3-oxo-1-((S)-2-oxopyrrolidin-3-yl)-4-(2,3,5,6-tetrafluorophenoxy)butan-2-yl)amino)-4-phenylbutan-2-yl)-1H-indole-2-carboxamide] |  | 0.5 to 1 µM | 
15 | O=C1NCC[C@H]1C[C@@H](NC(=O)[C@@H]1[C@H]2CCC[C@H]2CN1C(=O)c1cc2cc(F)ccc2[nH]1)C(=O)COC(F)(F)F [Compound 604, (1S,3aR,6aS)-2-(5-fluoro-1H-indole-2-carbonyl)-N-((R)-3-oxo-1-((S)-2-oxopyrrolidin-3-yl)-4-(trifluoromethoxy)butan-2-yl)octahydrocyclopenta[c]pyrrole-1-carboxamide] | < 0.05 µM |  | 
16 | O=C1NCC[C@H]1C[C@H](NC(=O)[C@@H]1C[C@@H](C(F)(F)F)CN1C(=O)[C@@H](O)c1ccccc1)C(=O)COC(F)(F)F [Compound 785, (2S,4R)-1-((S)-2-hydroxy-2-phenylacetyl)-N-((S)-3-oxo-1-((S)-2-oxopyrrolidin-3-yl)-4-(trifluoromethoxy)butan-2-yl)-4-(trifluoromethyl)pyrrolidine-2-carboxamide] | 0.05 to 0.2 µM |  | 
17 | O=C(Nc1ccccc1F)C(=O)N[C@@H](CC1CCCCC1)C(=O)N[C@@H](C[C@@H]1CCNC1=O)C(=O)COc1c(F)c(F)cc(F)c1F [Compound 61, N1-((S)-3-cyclohexyl-1-oxo-1-(((S)-3-oxo-1-((S)-2-oxopyrrolidin-3-yl)-4-(2,3,5,6-tetrafluorophenoxy)butan-2-yl)amino)propan-2-yl)-N2-(2-fluorophenyl)oxalamide] |  | < 0.05 µM | 
18 | O=C(C(=O)N1CC2(CC2)C[C@H]1C(=O)N[C@@H](C[C@@H]1CCNC1=O)C(=O)COC(F)(F)F)c1ccccc1 [Compound 674, (S)-N-((S)-3-oxo-1-((S)-2-oxopyrrolidin-3-yl)-4-(trifluoromethoxy)butan-2-yl)-5-(2-oxo-2-phenylacetyl)-5-azaspiro[2.4]heptane-6-carboxamide] | 0.05 to 0.2 µM |  | 
19 | CC(C)(O)CCC(=O)N1CC2(CC2)C[C@H]1C(=O)N[C@@H](C[C@@H]1CCNC1=O)C(=O)COC(F)(F)F [Compound 430, (S)-5-(4-hydroxy-4-methylpentanoyl)-N-((S)-3-oxo-1-((S)-2-oxopyrrolidin-3-yl)-4-(trifluoromethoxy)butan-2-yl)-5-azaspiro[2.4]heptane-6-carboxamide] | 0.2 to 0.5 µM |  | 
20 | CC[C@@H]1C[C@]1(NC(=O)c1cc2cc(F)ccc2[nH]1)C(=O)N[C@@H](C[C@@H]1CCNC1=O)C(=O)COC(F)(F)F [Compound 261, N-((1R,2R)-2-ethyl-1-(((S)-3-oxo-1-((S)-2-oxopyrrolidin-3-yl)-4-(trifluoromethoxy)butan-2-yl)carbamoyl)cyclopropyl)-5-fluoro-1H-indole-2-carboxamide] |  | 0.5 to 1 µM | 
21 | Cc1ccccc1NC(=O)c1cn([C@@H](CC(C)C)C(=O)N[C@@H](C[C@@H]2CCNC2=O)C(=O)COC(F)(F)F)nn1 [Compound 552, 1-((S)-4-methyl-1-oxo-1-(((S)-3-oxo-1-((S)-2-oxopyrrolidin-3-yl)-4-(trifluoromethoxy)butan-2-yl)amino)pentan-2-yl)-N-(o-tolyl)-1H-l,2,3-triazole-4-carboxamide] | < 0.05 µM |  | 
22 | CC(C)C[C@H](NC(=O)C(=O)NC1CC2(C1)CC(F)(F)C2)C(=O)N[C@@H](C[C@@H]1CCNC1=O)C(=O)COC(F)(F)F [Compound 241, N1-(6,6-difluorospiro-[3.3]heptan-2-yl)-N2-((S)-4-methyl-1-oxo-1-(((S)-3-oxo-1-((S)-2-oxopyrrolidin-3-yl)-4-(trifluoromethoxy)butan-2-yl)amino)pentan-2-yl)oxalamide] |  | < 0.05 µM | 
23 | O=C(N[C@@H](Cc1ccccc1)C(=O)N[C@@H](C[C@@H]1CCNC1=O)C(=O)COc1c(F)c(F)cc(F)c1F)c1cc2cc(F)ccc2[nH]1 [Compound 14, 5-fluoro-N-((S)-1-oxo-1-(((S)-3-oxo-1-((S)-2-oxopyrrolidin-3-yl)-4-(2,3,5,6-tetrafluorophenoxy)butan-2-yl)amino)-3-phenylpropan-2-yl)-1H-indole-2-carboxamide] |  | 0.05 to 0.2 µM | 
